From PubChem BioAssay AID330 (DTP/NCI, 2004)
“And” between values parts separate entries of the source, which are not always exact repeats. Identical values can stand only once. Toxic doses and inconclusive results are not listed.

Tested on: P388 leukemia ip, CD2F1 mice, survival T/C
Assay: NCI In Vivo Anticancer Drug Screen. Data for tumor model P388 Leukemia (intraperitoneal) in CD2F1 (CDF1) mice
Conditions: endpoint: median survival time, higher = longer survival
Outline: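 Mice carrying the transplanted tumor received test compound or vehicle. Survival was recorded in each group, and the value is the treated-group measurement divided by that of the vehicle-treated control group.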

[1] = dose: 50.0 mg/kg/injection, schedule: Q01DX009 (ip), vehicle: saline with Tween-80
[2] = dose: 100.0 mg/kg/injection, schedule: Q01DX009 (ip), vehicle: saline with Tween-80
[3] = dose: 200.0 mg/kg/injection, schedule: Q01DX009 (ip), vehicle: saline with Tween-80
[4] = dose: 50.0 mg/kg/injection, schedule: Q01DX005 (ip), vehicle: saline with Tween-80
[5] = dose: 100.0 mg/kg/injection, schedule: Q01DX005 (ip), vehicle: saline with Tween-80
[6] = dose: 200.0 mg/kg/injection, schedule: Q01DX005 (ip), vehicle: saline with Tween-80

CC(=O)O[C@H]1C(=O)[C@@]2(C)[C@H]([C@H](OC(=O)c3ccccc3)[C@]3(O)C[C@H](OC(=O)[C@H](O)[C@@H](NC(=O)c4ccccc4)c4ccccc4)C(C)=C1C3(C)C)[C@]1(OC(C)=O)CO[C@@H]1C[C@@H]2O
T/C (dose: 1.1 mg/kg/injection, schedule: Q01DX005 (ip), vehicle: other): 118 % of control | T/C (dose: 1.1 mg/kg/injection, schedule: Q01DX005 (iv), vehicle: other): 98 % of control | T/C (dose: 1.1 mg/kg/injection, schedule: Q01DX009 (oral), vehicle: other): 106 % of control | T/C (dose: 1.25 mg/kg/injection, schedule: Q01DX009 (ip), vehicle: Klucel (hydroxypropylcellulose) (HPC)): 106 % of control | T/C (dose: 1.25 mg/kg/injection, schedule: Q01DX009 (sc), vehicle: Klucel (hydroxypropylcellulose) (HPC)): 106 % of control | T/C (dose: 1.7 mg/kg/injection, schedule: Q01DX005 (ip), vehicle: other): 115 % of control | T/C (dose: 1.7 mg/kg/injection, schedule: Q01DX005 (iv), vehicle: other): 106 % of control | T/C (dose: 1.7 mg/kg/injection, schedule: Q03HX024 (ip), vehicle: other): 160 % of control | T/C (dose: 2.5 mg/kg/injection, schedule: Q01DX005 (ip), vehicle: Klucel (hydroxypropylcellulose) (HPC)): 124 % of control | T/C (dose: 2.5 mg/kg/injection, schedule: Q01DX009 (ip), vehicle: Klucel (hydroxypropylcellulose) (HPC)): 112 % of control | T/C (dose: 2.5 mg/kg/injection, schedule: Q01DX009 (oral), vehicle: Klucel (hydroxypropylcellulose) (HPC)): 100 % of control | T/C (dose: 2.5 mg/kg/injection, schedule: Q01DX009 (sc), vehicle: Klucel (hydroxypropylcellulose) (HPC)): 99 % of control | T/C (dose: 2.6 mg/kg/injection, schedule: Q01DX001 (ip), vehicle: other): 106 % of control | T/C (dose: 2.6 mg/kg/injection, schedule: Q01DX001 (iv), vehicle: other): 94 % of control | T/C (dose: 2.6 mg/kg/injection, schedule: Q01DX005 (ip), vehicle: other): 115 % of control | T/C (dose: 2.6 mg/kg/injection, schedule: Q01DX005 (iv), vehicle: other): 97 % of control | T/C (dose: 2.6 mg/kg/injection, schedule: Q03HX024 (ip), vehicle: other): 153 % of control | T/C (dose: 2.6 mg/kg/injection, schedule: Q04DX003 (iv), vehicle: other): 87 % of control | T/C (dose: 3.6 mg/kg/injection, schedule: Q01DX005 (ip), vehicle: Klucel (hydroxypropylcellulose) (HPC)): 161 % of control | T/C (dose: 4.0 mg/kg/injection, schedule: Q01DX001 (iv), vehicle: other): 95 % of control | T/C (dose: 4.0 mg/kg/injection, schedule: Q01DX005 (ip), vehicle: other): 120 % of control | T/C (dose: 4.0 mg/kg/injection, schedule: Q01DX009 (oral), vehicle: other): 96 % of control | T/C (dose: 4.0 mg/kg/injection, schedule: Q03HX008 (ip), vehicle: other): 156 % of control | T/C (dose: 4.0 mg/kg/injection, schedule: Q04DX003 (ip), vehicle: other): 120 % of control | T/C (dose: 4.0 mg/kg/injection, schedule: Q04DX003 (iv), vehicle: other): 87 % of control | T/C (dose: 5.0 mg/kg/injection, schedule: Q01DX009 (ip), vehicle: Klucel (hydroxypropylcellulose) (HPC)): 116 % of control | T/C (dose: 5.0 mg/kg/injection, schedule: Q01DX009 (oral), vehicle: Klucel (hydroxypropylcellulose) (HPC)): 99 % of control | T/C (dose: 5.0 mg/kg/injection, schedule: Q01DX009 (sc), vehicle: Klucel (hydroxypropylcellulose) (HPC)): 98 % of control | T/C (dose: 6.0 mg/kg/injection, schedule: Q01DX001 (ip), vehicle: other): 106 % of control | T/C (dose: 6.0 mg/kg/injection, schedule: Q01DX005 (iv), vehicle: other): 112 % of control | T/C (dose: 6.0 mg/kg/injection, schedule: Q01DX009 (oral), vehicle: other): 99 % of control | T/C (dose: 6.0 mg/kg/injection, schedule: Q03HX008 (ip), vehicle: other): 178 % of control | T/C (dose: 6.0 mg/kg/injection, schedule: Q04DX003 (iv), vehicle: other): 89 % of control | T/C (dose: 9.0 mg/kg/injection, schedule: Q01DX001 (ip), vehicle: other): 115 % of control | T/C (dose: 9.0 mg/kg/injection, schedule: Q01DX001 (iv), vehicle: other): 106 % of control | T/C (dose: 9.0 mg/kg/injection, schedule: Q01DX005 (iv), vehicle: other): 118 % of control | T/C (dose: 9.0 mg/kg/injection, schedule: Q01DX009 (oral), vehicle: other): 97 % of control | T/C (dose: 10.0 mg/kg/injection, schedule: Q01DX009 (ip), vehicle: Klucel (hydroxypropylcellulose) (HPC)): 100 % of control and 106 % of control | T/C (dose: 10.0 mg/kg/injection, schedule: Q01DX009 (oral), vehicle: Klucel (hydroxypropylcellulose) (HPC)): 99 % of control | T/C (dose: 10.0 mg/kg/injection, schedule: Q01DX009 (sc), vehicle: Klucel (hydroxypropylcellulose) (HPC)): 96 % of control | T/C (dose: 12.5 mg/kg/injection, schedule: Q04DX003 (ip), vehicle: Klucel (hydroxypropylcellulose) (HPC)): 150 % of control and 160 % of control | T/C (dose: 16.7 mg/kg/injection, schedule: Q01DX005 (ip), vehicle: Klucel (hydroxypropylcellulose) (HPC)): 96 % of control | T/C (dose: 20.0 mg/kg/injection, schedule: Q01DX009 (ip), vehicle: Klucel (hydroxypropylcellulose) (HPC)): 88 % of control | T/C (dose: 20.0 mg/kg/injection, schedule: Q01DX009 (oral), vehicle: Klucel (hydroxypropylcellulose) (HPC)): 98 % of control | T/C (dose: 20.0 mg/kg/injection, schedule: Q01DX009 (sc), vehicle: Klucel (hydroxypropylcellulose) (HPC)): 97 % of control | T/C (dose: 21.6 mg/kg/injection, schedule: Q04DX003 (ip), vehicle: Klucel (hydroxypropylcellulose) (HPC)): 157 % of control | T/C (dose: 25.0 mg/kg/injection, schedule: Q04DX003 (ip), vehicle: Klucel (hydroxypropylcellulose) (HPC)): 151 % of control and 155 % of control | T/C (dose: 40.0 mg/kg/injection, schedule: Q01DX009 (oral), vehicle: Klucel (hydroxypropylcellulose) (HPC)): 104 % of control | T/C (dose: 50.0 mg/kg/injection, schedule: Q04DX003 (ip), vehicle: Klucel (hydroxypropylcellulose) (HPC)): 124 % of control | T/C (dose: 60.0 mg/kg/injection, schedule: Q04DX003 (ip), vehicle: Klucel (hydroxypropylcellulose) (HPC)): 107 % of control | T/C (dose: 80.0 mg/kg/injection, schedule: Q01DX009 (oral), vehicle: Klucel (hydroxypropylcellulose) (HPC)): 98 % of control | T/C (dose: 160.0 mg/kg/injection, schedule: Q01DX009 (oral), vehicle: Klucel (hydroxypropylcellulose) (HPC)): 99 % of control

CCOC(=O)C12C3CC4C1C1(Cl)C(Cl)(Cl)C2(Cl)C2(Cl)C3C4C12Cl (stereo not given)
T/C (dose: 100.0 mg/kg/injection, schedule: Q04DX002 (ip), vehicle: saline with Tween-80): 94 % of control | T/C (dose: 200.0 mg/kg/injection, schedule: Q04DX002 (ip), vehicle: saline with Tween-80): 93 % of control | T/C (dose: 400.0 mg/kg/injection, schedule: Q04DX002 (ip), vehicle: saline with Tween-80): 109 % of control

COc1ccc2c(c1)sc1nc(Oc3ccccc3)nc(=O)n12
T/C (dose: 50.0 mg/kg/injection, schedule: Q01DX009 (ip), vehicle: Klucel (hydroxypropylcellulose) (HPC)): 105 % of control | T/C (dose: 100.0 mg/kg/injection, schedule: Q01DX009 (ip), vehicle: Klucel (hydroxypropylcellulose) (HPC)): 108 % of control | T/C (dose: 200.0 mg/kg/injection, schedule: Q01DX009 (ip), vehicle: Klucel (hydroxypropylcellulose) (HPC)): 100 % of control

CN(c1ccccc1)C1CS(=O)(=O)OC2=C1CCCC2 (stereo not given)
T/C [1]: 98 % of control | T/C [2]: 102 % of control | T/C [3]: 104 % of control

O=C(CC([Se]c1ccccc1)c1ccccc1)c1ccccc1 (stereo not given)
T/C [1]: 109 % of control | T/C [2]: 109 % of control | T/C [3]: 95 % of control

O/N=C/c1cc[n+](CCC[n+]2ccc(/C=N/O)cc2)cc1
T/C (dose: 5.0 mg/kg/injection, schedule: Q01DX009 (ip), vehicle: saline): 100 % of control | T/C (dose: 10.0 mg/kg/injection, schedule: Q01DX009 (ip), vehicle: saline): 90 % of control | T/C (dose: 20.0 mg/kg/injection, schedule: Q01DX009 (ip), vehicle: saline): 100 % of control

O=C1Nc2ccc3cn[nH]c3c2C1=O
T/C [4]: 98 % of control | T/C [5]: 101 % of control | T/C [6]: 105 % of control

CC(=O)c1nn(-c2ccccc2)c(=Nc2ccccc2)cc1C
T/C [4]: 100 % of control | T/C [5]: 101 % of control | T/C [6]: 98 % of control

COCCOCOCCCC#C[Si](C)(C)C
T/C (dose: 60.0 mg/kg/injection, schedule: Q01DX005 (ip), vehicle: saline with Tween-80): 100 % of control | T/C (dose: 120.0 mg/kg/injection, schedule: Q01DX005 (ip), vehicle: saline with Tween-80): 106 % of control | T/C (dose: 240.0 mg/kg/injection, schedule: Q01DX005 (ip), vehicle: saline with Tween-80): 106 % of control

CCN(CC)SC(=S)SN(CC)CC
T/C (dose: 50.0 mg/kg/injection, schedule: Q04DX003 (ip), vehicle: saline): 98 % of control | T/C (dose: 100.0 mg/kg/injection, schedule: Q04DX003 (ip), vehicle: saline): 96 % of control | T/C (dose: 200.0 mg/kg/injection, schedule: Q04DX003 (ip), vehicle: saline): 98 % of control | T/C (dose: 400.0 mg/kg/injection, schedule: Q04DX003 (ip), vehicle: saline): 104 % of control
